Laboratory results as given in publication PMC9814901, “One-pot synthesis of cyclic-aminotropiminium carboxylate derivatives with DNA binding and anticancer properties” (Communications Chemistry, 2022).
pIC50: −log10 of the molar value.

Legend:
human genomic DNA = experiment: Microscale thermophoresis (MST) binding of cATC derivatives to human genomic DNA; conditions: cATC derivative 20 µM, human genomic DNA 40 fM to 75 pM
Source text: Further, we examined the effect of cATC derivatives (6a/6e/6j/6n) on the ct-DNA duplex structure by circular dichroism (CD) studies. We recorded the CD spectra of ct-DNA with the increasing concentration of cATC derivatives (SM, Fig. S24). […] Next, we examined the binding site of cATC derivative (ligand) at the DNA duplex structure by using AutoDock-Vina, a well-reported computational docking program. We performed docking of cATC derivatives (6a/6d/6k) crystal structure (ligand) with dodecamer DNA duplex crystal structure (PDB ID-1BNA) as the receptor. Our docking results strongly support the non-covalent interaction of cATC derivatives (6a/6d/6k) at the DNA-minor groove with the binding affinity ~7.0 Kcal/mole, mostly hydrophobic interactions (SM, Figs. S25–7, Table S8). […]
DNA was isolated from 10 × 10^6 HeLa cells by QIAmp DNA mini Kit (Qiagen, Germany). cATC derivatives (6e, 6j, and 6n dissolved in a mixture of 1X PBS containing 1% DMSO) and DNA ranging from a concentration of 40 fM to 75pM (resuspended in 1X TE with 0.05% Tween-20), was used for analyzing the interaction of cATC derivatives with DNA. […] 15 µl of the above mixture was loaded in capillaries and binding affinity was measured using the NanoTemper instrument followed by analysis through NanoTemper analysis 1.2.231 software.

[1] = test system: p38-p53 pathway and EMT markers in HeLa cells; experiment: Western blot of p38-p53 pathway and EMT markers; type: cell-based
Experimental: In order to figure out the mechanism of apoptosis induction, we analyzed the effect of different concentrations of 6e (0 μM, 4 μM, 9 μM, 14 μM and 18 μM), 6j (0 μM, 5 μM, 10 μM, 15 μM and 19 μM), and 6n (0 μM, 5 μM, 10 μM, 15 μM and 19 μM) compounds on p38-p53 pathway.
Cell lysates were prepared from HeLa treated with compounds 6e, 6j, and 6n in ice-cold RIPA buffer (Thermo Scientific, USA), and supplemented with protease and phosphatase inhibitor cocktail (Thermo Scientific, USA). Protein quantification of cell lysates was done using BCA reagent (Thermo Scientific). 20 µg of protein samples were separated on a 12% SDS-PAGE and subsequently transferred onto a PVDF membrane (Merck Millipore, USA). The blots were probed with specific antibodies for p38 (1:1000, #9212, Cell Signaling Technology, USA), phospho-p38 (1:1000, #9211; Cell Signaling technology), p53 (1:1000, #9282, Cell signalling technology), phospho-p53 (1:1000, #9284, Cell Signaling technology), snail (1:1000, #C15D3, Cell Signaling technology), slug (1:1000, #C19G7, Cell signalling technology) and GAPDH (1:5000, #ABM22C5, Abgenex, India) followed by incubation with HRP tagged anti-mouse IgG secondary antibody (Abgenex) for GAPDH and HRP tagged anti-rabbit IgG secondary antibody (Abgenex) for p38, phospho-p38, p53, phospho-p53, snail and slug. The chemiluminescence signal was detected in ChemiDoc XRS + (Bio-Rad) using SuperSignal™ West Femto reagent (Thermo Scientific).

HeLa cells [2] = experiment: Cell cycle analysis by flow cytometry (PI); type: cell-based; conditions: 18 h, 6e 18 μM, 6j 19 μM, 6n 19 μM
Experimental: HeLa cells were cultured in 6 well plates with initial density 0.5 × 10^6 cells/well. These cells were treated with the IC50 concentration of 6n, 6j, and 6e compounds for 18 h. The cells were washed with 1X PBS and fixed with 70% ethanol. After washing, cells were resuspended in 500 μl PBS containing Propidium Iodide (PI) (500 μg/ml), RNase A (1X), and Triton X-100 (0.1%), and incubated for 30 min in the dark. Finally, the cells were analyzed by flow cytometry (BD Biosciences, CA, USA). The relative proportions of cells with DNA content G0–G1 (2n), S phase (>2n but <4n), and G2/M phase (4n) were acquired and analyzed using CellQuest Pro software (BD Biosciences).

HeLa cells [3] = experiment: Apoptosis analysis, FITC Annexin V / PI flow cytometry; type: cell-based; conditions: IC50 concentration, 18 h
Experimental: The apoptotic effect of 6e, 6j, and 6n compounds on cancer cells was detected using FITC Annexin V Apoptosis Detection Kit I (BD Pharmingen™, NJ, USA) according to the manufacturer’s protocol. 0.5 × 10^6 […] HeLa cells were seeded in a 6-well plate and treated with IC50 concentrations for 18 h. Harvested cells were incubated with Annexin V FITC and PI PE-conjugated antibody and apoptosis was evaluated using FACSCalibur (BD Biosciences, CA, USA) flow cytometry. Data were analyzed using CellQuest Pro software (BD Biosciences).

[4] = MTS cell viability assay in HeLa; type: cell-based; conditions: human, HeLa cells; HeLa, 50 μM, 18 h
Experimental: (§1) We investigated the effect of nine cATC derivatives (6b/6d/6e/6f/6i/6j/6k/6l/6n) on cell viability in cancer cell-line HeLa and transformed normal cell-line HEK293. We treated cells with the varying concentrations of the compounds ranging from 10 nM to 50 μM for 18 h (optimized).
(§2) MTS assay (CellTiter 96® AQueous One Solution Cell Proliferation Assay (Promega, USA) was used to determine the cell viability. HeLa and HEK293 cells (20,000 cells in each well) were plated in 96 well plate and treated with 6e, 6j, and 6n varying concentrations of the compounds ranging from 10 nM to 50 μM for 18 h. The assay was carried out according to the manufacturer’s instructions. Finally, the plate was read in Varioskan™ LUX multimode microplate reader (Thermo Fisher Scientific) at 490 nm.
(§3) Cell scavenging activity was calculated using the following formula:
(§4) OD(490nm) (control) – OD(490nm) (Test)/OD(490nm) (control) × 100%
(§5) Cell Viability of the cell was calculated using the following formula: […]

HeLa cells [5] = experiment: MTS cell viability assay in HeLa; type: cell-based; conditions: for pIC50: Homo sapiens
Experimental: as §1, §2, §3, §4, §5

## Cc1cccc(C2C(C(=O)[O-])N(CCc3ccccc3)c3ccccc[c+]3N2Cc2ccccc2)c1 (stereo not drawn) [Compound 6e]
Human genomic DNA
  Hill's coefficient (nH): 1.6
[1]; dose-dependent, 0-19 µM
  E-Cadherin expression: increased expression of E-Cadherin
  expression of EMT markers (N-Cadherin, Snail, Slug): decreased expression of EMT markers
[1]; increasing concentration 0-18 μM (6e), 0-19 μM (6j, 6n)
  phospho-P53 and phospho-P38 levels: gradual increase in phospho-P53 and phospho-P38 levels
HeLa cells [2]; control 24.36%
  cells in G2/M phase: 7.05%
HeLa cells [2]; control 28.84%
  cells in S phase: 34.61%
HeLa cells [2]; control 46.78%
  cells in G0/G1 phase: 58.33%
HeLa cells [3]; control 2.9 %
  Late Apoptotic cells (FITC-AV+/PI+): 15.6%
HeLa cells [3]; control 3.6 %
  Early Apoptotic cells (FITC-AV+/PI-): 62.5%
HeLa cells [3]; control 6.5%
  cells entered into apoptotic phase: 78.2%
[4]
  viability at 18 h, 50 µM: 15.2%
HeLa cells [5]; 10 nM to 50 μM, 18 h
  effect on HeLa cell proliferation: retarded HeLa cell proliferation in a dose dependent manner
HeLa cells [5]; HeLa, 50 μM, 18 h
  Cell scavenging: 84.74%
HeLa cells [5]; HeLa, values given in rebuttal letter of peer review file
  pIC50: 4.59
HeLa cells [5]; MTS, 18 h, cell line not named in the sentence (HeLa implied)
  pIC50: 4.60
